Here are results for one compound from patent US6660468B1, “Vitro and in vivo models for screening compounds to prevent glucocorticoid-induced bone destruction” (Board of Trustees of the University of Arkansas, priority 1998, dated 2003).

For data set [1], the system named is CFU-F, CFU-OB and osteoclast progenitors in bone marrow cells. As to the kind of experiment: Osteoblastogenesis and osteoclastogenesis in ex vivo bone marrow cell cultures. More on the design: species or system mouse. Particulars: 27 d. On the procedure:
One femur from each mouse was flushed with 5 ml of phenol red-free αMEM (Gibco BRL, Gaithersburg, Md.) containing 10% FBS (Hyclone, Logan, Utah) to obtain marrow cells. After the cells were rinsed and resuspended to obtain a single cell suspension, the nucleated cell count was determined using a Coulter Counter. Cells from each animal were cultured separately.
The number of colony-forming unit-fibroblast (CFU-F) and CFU-osteoblast (CFU-OB) present in the bone marrow preparations were determined (16-18). Briefly, cells were seeded at 1.5×10^6 per 10 cm^2 well for the determination of CFU-F number and maintained for 10 days in phenol red-free αMEM containing 15% preselected FBS, 50 μM ascorbic acid and 10 mM β-glycerophosphate (Sigma Chemical Co, St. Louis, Mo.) with one-half of the medium replaced after 5 days. After fixation in neutral buffered formalin and staining with hematoxylin, colonies containing a minimum of 20 fibroblastoid cells were enumerated. Cells were seeded at 2.5×10^6 cells per 10 cm^2 well for the determination of CFU-OB number and cultured for 25-28 days as described above for CFU-F. After fixation in 50% ethanol and 18% formaldehyde, cultures were stained using Von Kossa's method to visualize and enumerate colonies containing mineralized bone matrix.
Osteoclast formation in bone marrow cultures was assessed in replicate cultures (4-6 from each animal) maintained for 9 days in the presence of αMEM, 10% FBS and 10 nM 1.25(OH)2D3 (7). Briefly, marrow cells were cultured at 1.5×10^6 per 2 cm^2 well on 13 mm round Thermanox disks and maintained for 8 days in the presence of 10% FBS in αMEM supplemented with 10^−8 M 1.25(OH)2D3 (provided by Dr. Milan Uskokovic, Hoffman-LaRoche, Nutley, N.J.). At the end of the experiment, cells were processed for the autoradiographic detection of bound ^125I-calcitonin (^125I-CT) and stained for tartrate-resistant acid phosphatase. […] Therefore, mononucleated and multinucleated cells that both bind ^125I-CT and express TRAPase were designated as osteoclastic cells. The number of osteoclasts formed in this assay is a reflection of the number of osteoclast progenitors present in the bone marrow aspirate and the number of stromal/osteoblastic support cells that form during the culture period.
The number of CFU-F colonies, CFU-OB colonies, and osteoclastic cells formed from the marrow cells of each animal was expressed as the number per femur, which was calculated by multiplying the number of colonies or osteoclasts obtained per 10^6 cells seeded at the initiation of the cultures by the total number of marrow cells obtained from the animal.

The subject of data set [2] is murine vertebral cancellous bone. The data set can be described thus: Vertebral cancellous bone histomorphometry after 27 days. The method, then: Animals at peak bone mass were used to avoid obscuring the negative impact of glucocorticoid excess on bone mineral density by the confounding effects of increased linear and radial growth. Before the experiment began, bone mineral density measurements were repeated to allocate the animals into groups (n=4-5) with equivalent spinal density values. […] These doses were administered for 27 days by subcutaneous implantation of slow-release pellets (Innovative Research of America, Sarasota, Fla.). Bone mineral density measurements were obtained at the beginning of the experiment and 27 days post-implantation. For dynamic histomorphometric measurements, tetracycline HCl (30 mg/kg body weight) was given intraperitoneally 17 and 23 days post-implantation. After 27 days, the mice were sacrificed, serum and urine specimens were taken, bone marrow aspirates were obtained from the right femur for ex vivo marrow cell cultures and the left femur and lumbar vertebrae were prepared for histomorphometric analysis. Livers were examined for fatty infiltration as a sign of prednisolone toxicity. The weight of the seminal vesicles (mg/100 g body weight) was used as an index of the androgen status of the animals (12). To help interpret these measurements, a separate group of animals was orchidectomized (n=5).
The distal femora and lumbar vertebrae were fixed in 4° C. Millonig's phosphate-buffered 10% formalin, pH 7.4, embedded undecalcified in methyl methacrylate and stained (7,9,13). The histomorphometric examination was done with a computer and digitizer tablet (OsteoMetrics Inc. Version 3.00, Atlanta, Ga.) interfaced to a Zeiss Axioscope (Carl Zeiss, Inc., Thornwood, N.Y.) with a drawing tube attachment. All cancellous measurements were two-dimensional, confined to the secondary spongiosa and made at ×400 magnification (numerical aperture 0.75). The terminology and units used are those recommended by the Histomorphometry Nomenclature Committee of the American Society for Bone and Mineral Research (14). The trabecular width and osteoid width were measured directly. Trabecular spacing and number were calculated (15). Only TRAPase-positive cells were included in the osteoclast perimeter. The rate of bone formation (μm^2/μm/d) and turnover (%/d) were calculated (7).

Setting [3] is: higher dose (2.1 mg/kg/d), 27 days, vs placebo.

`C[C@]12C=CC(=O)C=C1CC[C@@H]1[C@@H]2[C@@H](O)C[C@@]2(C)[C@H]1CC[C@]2(O)C(=O)CO` [prednisolone]: the CFU-F colonies in data set [1] (higher dose (2.1 mg/kg/d), placebo 1250±374, NS) is listed as 698±104 number per femur. For the same compound, in data set [1] (higher dose), the “Decrease in number of CFU-OB colonies” value was found to be 86% and the “Decrease in number of osteoclastic cells” value was 65%. Also, in data set [1] (higher dose, placebo 375±257), the CFU-OB colonies came out at 54±14 number per femur. Also, the “Osteoclastic cells formed in response to 1.25(OH)2D3” value in data set [1] (higher dose, placebo 1387±920) was determined as 492±311 number per femur. For the same compound, the “Bone area/Tissue area” value in data set [2] (0.7 mg/kg/d, 27 days) is on record as 6.9 ± 2.1%. The “Bone area/Tissue area” value in data set [2] (2.1 mg/kg/d, 27 days) came to 6.3 ± 1.7 %. Further, the “Decrease in mineralizing perimeter” value in data set [2] (27 days) stood at 26%. Besides, in data set [2] (higher dose (2.1 mg/kg/d), 27 days), the “Decline in mineral appositional rate” value is on record as 40%. Moreover, in data set [2] (setting [3]), the “Decline in trabecular width” value was determined as 23% and the “Decline in vertebral cancellous bone area” value is 40%. Also, in data set [2] (higher dose, 27 days), the “Decrease in osteoid area” value came to 29%, the “Decrease in osteoid perimeter” value was determined as 34%, the “Decrease in osteoid width” value was 27% and the “Decrease in rate of bone formation” value amounted to 53%. Moreover, in data set [2] (lower dose (0.7 mg/kg/d), 27 days), the “Decline in mineral appositional rate” value is on record as 22%. Moreover, in data set [2] (mouse, in vivo), the “Active lifespan of an osteoblast” value was “about 260 hours”, the “Increase in empty erosion cavities or reversal perimeter” value is on record as 3 fold and the Wall width result is on record as “about 8 μm”.
